Measured values reported in patent publication US9428504B2, “7-hydroxy-spiropipiperidine indolinyl antagonists of P2Y1 receptor” (BRISTOL-MYERS SQUIBB COMPANY, priority 2012, dated 2016).
Counter-ions that a name gives are not always drawn.

How the values were obtained:
[1] = biological target: cloned human P2Y1 receptors (Homo sapiens (Human), UniProt P47900); assay: Binding Assay B: Scintillation Proximity Assay (SPA) for P2Y1 binding; conditions: SPA, [33P] 2MeS-ADP displacement; read-out: P2Y1 Ki (nM) using binding assay B
Chain of cloned human P2Y1 receptors (P47900 whole entry): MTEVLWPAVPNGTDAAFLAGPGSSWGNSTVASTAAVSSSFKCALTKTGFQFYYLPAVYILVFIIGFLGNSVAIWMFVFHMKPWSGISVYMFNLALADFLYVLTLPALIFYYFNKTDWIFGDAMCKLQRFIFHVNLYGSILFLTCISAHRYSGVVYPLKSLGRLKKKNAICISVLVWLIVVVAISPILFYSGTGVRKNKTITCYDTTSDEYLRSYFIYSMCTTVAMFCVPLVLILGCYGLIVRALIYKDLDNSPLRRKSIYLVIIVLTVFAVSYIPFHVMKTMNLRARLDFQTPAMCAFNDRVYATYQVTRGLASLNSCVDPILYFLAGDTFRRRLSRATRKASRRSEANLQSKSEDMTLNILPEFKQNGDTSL
Procedure, shortened: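 Scintillation proximity readout of 0.3 nM [^33P] tracer displacement from receptor membranes (~15 fmol receptor, 1.7 μg protein). Binding ran 1 h at room temperature to completion; plates were then centrifuged and aqueous phase aspirated before counting.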

[2] = tested on: human platelet rich plasma (PRP); assay: ADP induced platelet aggregation assay; conditions: Homo sapiens, Platelet, read-out: PA IC50 (μM) @ 10 μM ADP, platelet aggregation induced by 10 μM ADP, human PRP

Structure (SMILES)	Ki [1] [nM]	IC50 [2] [µM]
CC(C)(C)CN1CCC2(CC1)CN(c1ccccc1NC(=O)Nc1ccc(OC(F)(F)F)cc1)c1c(O)ccc(Cl)c12 [Example 59, 1-(2-(4-Chloro-7-hydroxy-1′-neopentylspiro[indoline-3,4′-piperidine]-1-yl)phenyl)-3-(4-(trifluoromethoxy)phenyl)urea]	7.2	0.4
CC(C)(C)CN1CCC2(CC1)CN(c1ccccc1NC(=O)Nc1ccc(C(F)(F)F)cc1)c1c(O)ccc(Cl)c12 [Example 60, 1-(2-(4-Chloro-7-hydroxy-1′-neopentylspiro[indoline-3,4′-piperidin]-1-yl)phenyl)-3-(4-(trifluoromethyl)phenyl)urea]	6.4	0.4
CC(C)(C)CN1CCC2(CC1)CN(c1ccccc1NC(=O)Nc1csc(Cl)n1)c1c(O)ccc(Cl)c12 [Example 61, 1-(2-(4-Chloro-7-hydroxy-1′-neopentylspiro[indoline-3,4′-piperidin]-1-yl)phenyl)-3-(2-chlorothiazol-4-yl)urea]	5.8	0.2
CC(C)c1nc(NC(=O)Nc2ccccc2N2CC3(CCN(CC(C)(C)C)CC3)c3c(Cl)ccc(O)c32)cs1 [Example 62, 1-(2-(4-Chloro-7-hydroxy-1′-neopentylspiro[indoline-3,4′-piperidine]-1-yl)phenyl)-3-(2-isopropylthiazol-4-yl)urea]	13	0.8
CC(C)(C)CN1CCC2(CC1)CN(c1ccccc1NC(=O)Nc1csc(C(F)(F)F)n1)c1c(O)ccc(Cl)c12 [Example 63, 1-(2-(4-Chloro-7-hydroxy-1′-neopentylspiro[indoline-3,4′-piperidine]-1-yl)phenyl)-3-(2-(trifluoromethyl)thiazol-4-yl)urea]	4.9	0.4
CC(C)CN1CCC2(CC1)CN(c1ccccc1NC(=O)Nc1ccc(C(F)(F)F)cc1)c1c(O)ccc(Cl)c12 [Example 64, 1-(2-(4-Chloro-7-hydroxy-1′-isobutylspiro[indoline-3,4′-piperidine]-1-yl)phenyl)-3-(4-(trifluoromethyl)phenyl)urea]	6.5	1
CC(C)CN1CCC2(CC1)CN(c1ccccc1NC(=O)Nc1nc3ccc(Cl)cc3s1)c1c(O)ccc(Cl)c12 [Example 65, 1-(2-(4-Chloro-7-hydroxy-1′-isobutylspiro[indoline-3,4′-piperidine]-1-yl)phenyl)-3-(6-chlorobenzo[d]thiazol-2-yl)urea]	7.8	0.4
CC(C)(C)CN1CCC2(CC1)CN(c1ncccc1NC(=O)Nc1nc3ccc(F)cc3s1)c1c(O)ccc(Cl)c12 [Example 66, 1-(2-(4-Chloro-7-hydroxy-1′-neopentylspiro[indoline-3,4′-piperidine]-1-yl)pyridin-3-yl)-3-(6-fluorobenzo[d]thiazol-2-yl)urea]	25.8	1.2
CC(C)(C)CN1CCC2(CC1)CN(c1cc(F)ccc1NC(=O)Nc1nc3ccc(F)cc3s1)c1c(O)ccc(Cl)c12 [Example 67, 1-(2-(4-Chloro-7-hydroxy-1′-neoopentylspiro[indoline-3,4′-piperidine]-1-yl)-4-fluorophenyl)-3-(6-fluorobenzo[d]thiazol-2-yl)urea]	22.2	0.3
CC(C)(C)CN1CCC2(CC1)CN(c1ccc(C#N)cc1NC(=O)Nc1ccc(OC(F)(F)F)cc1)c1c(O)ccc(Cl)c12 [Example 69, 1-(2-(4-Chloro-7-hydroxy-1′-neopentylspiro[indoline-3,4′-piperidine]-1-yl)-5-cyanophenyl)-3-(4-(trifluoromethoxy)phenyl)urea]	21.4	0.8
CC(C)(C)CN1CCC2(CC1)CN(c1ccc(C#N)cc1NC(=O)Nc1nc3ccc(F)cc3s1)c1c(O)ccc(Cl)c12 [Example 70, 1-(2-(4-Chloro-7-hydroxy-1′-neopentylspiro[indoline-3,4′-piperidine]-1-yl)-5-cyanophenyl)-3-(6-fluorobenzo[d]thiazol-2-yl)urea]	29.4	1
CC(C)(C)CN1CCC2(CC1)CN(c1ccccc1NC(=O)Nc1nc3c(s1)CN(CC(F)(F)F)CC3)c1c(O)ccc(Cl)c12 [Example 71, 1-(2-(4-Chloro-7-hydroxy-1′-neopentylspiro[indoline-3,4′-piperidine]-1-yl)phenyl)-3-(5-(2,2,2-trifluoroethyl)-4,5,6,7-tetrahydrothiazolo[5,4-c]pyridin-2-yl)urea]	11.1	0.3
CC(C)(C)CN1CCC2(CC1)CN(c1ccccc1NC(=O)Nc1nc3c(s1)CN(C(=O)C(F)(F)F)CC3)c1c(O)ccc(Cl)c12 [Example 72, 1-(2-(4-Chloro-7-hydroxy-1′-neopentylspiro[indoline-3,4′-piperidine]-1-yl)phenyl)-3-(5-(2,2,2-trifluoroacetyl)-4,5,6,7-tetrahydrothiazolo[5.4-c]pyridin-2-yl)urea]	22.4	0.2
CC(C)C(=O)N1CCc2nc(NC(=O)Nc3ccccc3N3CC4(CCN(CC(C)(C)C)CC4)c4c(Cl)ccc(O)c43)sc2C1 [Example 73, 1-(2-(4-Chloro-7-hydroxy-1′-neopentylspiro[indoline-3,4′-piperidine]-1-yl)phenyl)-3-(5-isobutyryl-4,5,6,7-tetrahydrothiazolo [5,4-c]pyriidn-2-yl)urea]	17.9	0.5
CC(C)CN1CCc2nc(NC(=O)Nc3ccccc3N3CC4(CCN(CC(C)(C)C)CC4)c4c(Cl)ccc(O)c43)sc2C1 [Example 74, 1-(2-(4-Chloro-7-hydroxy-1′-neopentylspiro[indoline-3,4′-piperidine]-1-yl)phenyl)-3-(5-isobutyl-4,5,6,7-tetrahydrothiazolo[5,4-c]pyridin-2-yl)urea]	10.3	0.2
COC(=O)c1ccc(O)c2c1C1(CCN(CC(C)(C)C)CC1)CN2c1ccccc1NC(=O)Nc1nc2ccc(F)cc2s1 [Example 77, Methyl 1-(2-(3-(6-fluorobenzo[d]thiazol-2-yl)ureido)phenyl)-7-hydroxy-1′-neopentylspiro[indoline-3,4′-piperidine]-4-carboxylate]	8.7	0.3
COC(=O)c1ccc(O)c2c1C1(CCN(CC(C)(C)C)CC1)CN2c1ccccc1NC(=O)Nc1ccc(F)cc1F [Example 78, Methyl 1-(2-(3-(2,4-difluorophenyl)ureido)phenyl)-7-hydroxy-1′-neopentylspiro[indoline-3,4′-piperidine]-4-carboxylate]	7.9	0.7
COC(=O)c1ccc(O)c2c1C1(CCN(CC(C)(C)C)CC1)CN2c1ccccc1NC(=O)Nc1ccc(OC(F)(F)F)cc1 [Example 79, Methyl 7-hydroxy-1′-neopentyl-1-(2-(3-(4-(trifluoromethoxy)phenyl)ureido)phenyl)-spiro[indoline-3,4′-piperidine]-4-carboxylate]	9	0.7
CC(C)CN1CCC2(CC1)CN(c1ccccc1NC(=O)Nc1nc3ccc(Cl)cc3s1)c1c(O)ccc(C#N)c12 [Example 80, 1-(6-Chlorobenzo[d]thiazol-2-yl)-3-(2-(4-cyano-7-hydroxy-1′-isobutylspiro[indoline-3,4′-piperidine]-1-yl)phenyl)urea]	14.4	0.9
CC(C)(C)CN1CCC2(CC1)CN(c1ccccc1NC(=O)Nc1nc3ccc(F)cc3s1)c1c(O)ccc(C#N)c12 [Example 81, 1-(2-(4-Cyano-7-hydroxy-1′-neopentylspiro[indoline-3,4′-piperidine]-l-yl)phenyl)-3-(6-fluorobenzo[d]thiazol-2-yl) urea, trifluoroacetic acid salt]	5	0.6
CC(C)(C)CN1CCC2(CC1)CN(c1ccccc1NC(=O)Nc1ccc(C(C)(C)C)cc1)c1c(O)ccc(C#N)c12 [Example 82, l-(4-tert-Butylphenyl)-3-(2-(4-cyano-7-hydroxy-1′-neopentylspiro[indoline-3,4′-piperidine]-l-yl)phenyl)urea, trifluoroacetic acid salt]	24.8	1
CC(C)(C)CN1CCC2(CC1)CN(c1ccccc1NC(=O)Nc1nc3ccc(Cl)cc3s1)c1c(O)ccc(C#N)c12 [Example 83, l-(6-Chlorobenzo[d]thiazol-2-yl)-3-(2-(4-cyano-7-hydroxy-1′-neopentylspiro[indoline-3,4′-piperidine]-1-yl)phenyl) urea, trifluoroacetic acid salt]	5.7	0.2
Cc1ccc2nc(NC(=O)Nc3ccccc3N3CC4(CCN(CC(C)(C)C)CC4)c4c(C#N)ccc(O)c43)sc2c1 [Example 84, 1-(2-(4-Cyano-7-hydroxy-1′-neopentylspiro[indoline-3,4′-piperidine]-l-yl)phenyl)-3-(6-methylbenzo[d]thiazol-2-yl) urea, trifluoroacetic acid salt]	11.8	0.5
CC(C)(C)CN1CCC2(CC1)CN(c1ccccc1NC(=O)Nc1csc(Cl)n1)c1c(O)ccc(C#N)c12 [Example 85, l-(2-Chlorothiazol-4-yl)-3-(2-(4-cyano-7-hydroxy-1′-neopentylspiro[indoline-3,4′-piperidine]-1-yl)phenyl)urea]	3.7	0.4
CN(C)S(=O)(=O)c1ccc(O)c2c1C1(CCN(CC(C)(C)C)CC1)CN2c1ccccc1NC(=O)Nc1ccc(OC(F)(F)F)cc1 [Example 89, 7-Hydroxy-N,N-dimethyl-1′-neopentyl-1-(2-(3-(4-(trifluoromethoxy)phenyl)ureido)phenyl)spiro[indoline-3,4′-piperidine]-4-sulfonamide]	5.3	0.4
CCN(CC)S(=O)(=O)c1ccc(O)c2c1C1(CCN(CC(C)(C)C)CC1)CN2c1ccccc1NC(=O)Nc1ccc(C(C)(C)C)cc1 [Example 90, 1-(2-(3-(4-tert-Butylphenyl)ureido)phenyl)-N,N-diethyl-7-hydroxy-1′-neopentylspiro [indoline-3,4′-piperidine]-4-sulfonamide, trifluoroacetic acid salt]	3.5	0.2
